In ChEMBL document CHEMBL1140146, “Cycloartane glycosides from Sutherlandia frutescens” (J Nat Prod, 2008):
Calls of active or inactive are those of the source.

Legend:
Type in all cases: functional, organism-based
[1] = system: Candida albicans; experiment: Antimicrobial activity against Candida albicans at 20 ug/mL by NCCLS method
[2] = system: Cryptococcus neoformans; experiment: Antimicrobial activity against Cryptococcus neoformans at 20 ug/mL by microplate assay
[3] = system: Aspergillus fumigatus; experiment: Antimicrobial activity against Aspergillus fumigatus at 20 ug/mL
[4] = system: Staphylococcus aureus; experiment: Antimicrobial activity against Staphylococcus aureus at 20 ug/mL by microplate assay
[5] = system: Staphylococcus aureus; experiment: Antimicrobial activity against methicillin-resistant Staphylococcus aureus at 20 ug/mL by microplate assay
[6] = system: Pseudomonas aeruginosa; experiment: Antimicrobial activity against Pseudomonas aeruginosa at 20 ug/mL
[7] = system: Mycobacterium intracellulare; experiment: Antimicrobial activity against Mycobacterium intracellular at 20 ug/mL
[8] = system: Plasmodium falciparum; experiment: Antimalarial activity against Plasmodium falciparum D6 at 40 ug/mL
[9] = system: Plasmodium falciparum; experiment: Antimalarial activity against Plasmodium falciparum W2 at 40 ug/mL

Measured: Activity

C[C@H](CC[C@H](O)C(C)(C)O[C@@H]1O[C@H](CO)[C@@H](O)[C@H](O)[C@H]1O)[C@H]1CC[C@@]2(C)[C@@H]3CC[C@H]4C(C)(C)[C@H](O)CC(=O)[C@@]45C[C@@]35C(=O)C[C@]12C
inactive: all assays above

C[C@H](CC[C@H](O)C(C)(C)O[C@@H]1O[C@H](CO)[C@@H](O)[C@H](O)[C@H]1O)[C@H]1CC[C@@]2(C)[C@@H]3[C@@H](O)C[C@H]4C(C)(C)C=CC(=O)[C@@]45C[C@@]35CC[C@]12C
inactive: all assays above

C[C@H](CC[C@H](O)C(C)(C)O[C@@H]1O[C@H](CO)[C@@H](O)[C@H](O)[C@H]1O)[C@H]1CC[C@@]2(C)[C@H]3C(=CC[C@]12C)C[C@]12O[C@H]3C[C@H]1C(C)(C)[C@H](O)C[C@@H]2O
inactive: all assays above

C[C@H](CC[C@H](O)C(C)(C)O[C@@H]1O[C@H](CO)[C@@H](O)[C@H](O)[C@H]1O)[C@H]1CC[C@@]2(C)[C@@H]3[C@@H](O)C[C@H]4C(C)(C)[C@H](O)CC(=O)[C@@]45C[C@@]35CC[C@]12C
inactive: all assays above
